Assay results published in US10065990B2, “Cyclic peptide compound, and preparation method, pharmaceutical composition and use thereof” (HANGZHOU GUANYU BIO-MEDICAL CO., LTD, priority 2013, dated 2018).

Tests used:
[1] = biological target: T1, HDAC7 (Homo sapiens, UniProt Q8WUI4); experiment: HDAC biochemical activity measurement (fluorescent substrate deacetylation);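 also: fluorogenic deacetylation assay using acetyl-lysine substrate at 20 µM, enzyme and compound incubated 30 min at 37 °C, then developer added, fluorescence read at 360/460 nm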; conditions: HDAC7; 37° C. 30 minutes
T1 sequence (Q8WUI4 1-952): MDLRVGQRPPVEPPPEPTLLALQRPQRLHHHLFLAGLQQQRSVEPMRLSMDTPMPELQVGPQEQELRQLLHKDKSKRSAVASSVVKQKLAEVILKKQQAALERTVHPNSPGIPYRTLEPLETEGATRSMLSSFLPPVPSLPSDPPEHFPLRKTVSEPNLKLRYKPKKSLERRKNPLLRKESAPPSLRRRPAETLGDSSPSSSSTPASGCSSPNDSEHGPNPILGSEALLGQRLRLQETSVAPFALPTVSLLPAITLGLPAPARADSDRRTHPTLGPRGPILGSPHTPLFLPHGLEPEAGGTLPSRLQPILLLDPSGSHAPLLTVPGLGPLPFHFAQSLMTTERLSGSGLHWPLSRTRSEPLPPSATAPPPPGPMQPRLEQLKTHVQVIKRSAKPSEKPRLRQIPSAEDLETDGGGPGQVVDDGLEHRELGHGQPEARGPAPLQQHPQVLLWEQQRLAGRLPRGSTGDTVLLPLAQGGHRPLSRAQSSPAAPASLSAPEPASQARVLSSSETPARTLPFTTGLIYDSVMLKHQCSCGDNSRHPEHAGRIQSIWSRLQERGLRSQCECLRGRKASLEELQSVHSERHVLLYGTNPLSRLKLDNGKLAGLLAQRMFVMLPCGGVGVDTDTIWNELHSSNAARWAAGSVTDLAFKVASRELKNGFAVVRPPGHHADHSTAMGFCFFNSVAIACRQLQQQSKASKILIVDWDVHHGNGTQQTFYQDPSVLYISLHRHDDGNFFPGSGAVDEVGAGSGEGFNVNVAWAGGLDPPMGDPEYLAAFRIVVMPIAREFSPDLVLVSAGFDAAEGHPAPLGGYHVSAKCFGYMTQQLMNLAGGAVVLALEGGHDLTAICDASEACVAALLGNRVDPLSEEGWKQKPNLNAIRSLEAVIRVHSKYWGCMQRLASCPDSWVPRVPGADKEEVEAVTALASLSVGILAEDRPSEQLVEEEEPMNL

[2] = test system: A549 (human lung cancer cells); experiment: MTT cancer cell growth inhibition; format: cell-based; conditions: Homo sapiens, A549, 72 h, A549 cells, MTT, 72 hours incubation; read-out: GI50 A54
In short: (§1)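 Absorbance at 570 nm of DMSO-dissolved formazan, formed during a 4 h MTT incubation, served as the viability measure. Cells had been exposed 72 h to drug at 10^−5–10^−10 M final; GI50 was calculated from these readings.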

[3] = test system: BGC-823 (human gastric cancer cells); experiment: MTT cancer cell growth inhibition; format: cell-based; conditions: Homo sapiens, BGC-823, 72 h, BGC-823 cells, MTT, 72 hours incubation; read-out: GI50 BG
In short: as §1

[4] = test system: Bel-7402 (human hepatoma cells); experiment: MTT cancer cell growth inhibition; format: cell-based; conditions: Homo sapiens, Bel-7402, 72 h, MTT, 72 hours incubation, Bel-7402 cells; read-out: GI50 Bel-7402
In short: as §1

[5] = test system: DU145 (human prostate cancer cells); experiment: MTT cancer cell growth inhibition; format: cell-based; conditions: Homo sapiens, DU-145, 72 h, DU145 cells, MTT, 72 hours incubation; read-out: GI50 Du1
In short: as §1

[6] = test system: H1975 (non-small cell lung adenocarcinoma); experiment: MTT cancer cell growth inhibition; format: cell-based; conditions: Homo sapiens, NCI-H1975, 72 h, MTT, 72 hours incubation, H1975 cells; read-out: GI50 H1975
In short: as §1

[7] = test system: HCC827 (human non-small cell lung cancer cells); experiment: MTT cancer cell growth inhibition; format: cell-based; conditions: Homo sapiens, HCC827, 72 h, MTT, 72 hours incubation, HCC827 cells; read-out: GI50 HCC827
In short: as §1

[8] = test system: HT1080 (human fibrosarcoma cells); experiment: MTT cancer cell growth inhibition; format: cell-based; conditions: Homo sapiens, HT-1080, 72 h, HT1080 cells, MTT, 72 hours incubation; read-out: GI50 HT1
In short: as §1

[9] = test system: Hela (human cervical cancer cells); experiment: MTT cancer cell growth inhibition; format: cell-based; conditions: Homo sapiens, HeLa, 72 h, Hela cells, MTT, 72 hours incubation; read-out: GI50 Hela
In short: as §1

[10] = test system: Huh-7 (human hepatoma cells); experiment: MTT cancer cell growth inhibition; format: cell-based; conditions: Homo sapiens, Huh-7, 72 h, MTT, 72 hours incubation, Huh-7 cells; read-out: GI50 Huh-7
In short: as §1

[11] = test system: K562 (human leukemia cells); experiment: MTT cancer cell growth inhibition; format: cell-based; conditions: Homo sapiens, K562, 72 h, MTT, 72 hours incubation, K562 cells; read-out: GI50 K562
In short: as §1

[12] = test system: KBM-5 (human chronic myelogenous leukemia); experiment: MTT cancer cell growth inhibition; format: cell-based; conditions: Homo sapiens, KBM5, 72 h, MTT, 72 hours incubation, KBM-5 cells; read-out: GI50 KBM-5
In short: as §1

[13] = test system: KBM5-T315I (human chronic myelogenous leukemia); experiment: MTT cancer cell growth inhibition; format: cell-based; conditions: Homo sapiens, 72 h, MTT, 72 hours incubation, KBM5-T315I cells; read-out: GI50 KBM5-T315I
In short: as §1

[14] = test system: MCF-7 (human breast cancer cells); experiment: MTT cancer cell growth inhibition; format: cell-based; conditions: Homo sapiens, MCF7, 72 h, MCF-7 cells, 72 hours incubation, read-out: GI50 MCF
In short: as §1

[15] = test system: MDA-MB-231 (breast cancer cells); experiment: MTT cancer cell growth inhibition; format: cell-based; conditions: Homo sapiens, MDA-MB-231, 72 h, read-out: GI50 MDA-MB-231, MTT, 72 hours incubation, MDA-MB-231 cells
In short: as §1

[16] = test system: MOLT-4 (human acute lymphoblastic leukemia cells); experiment: MTT cancer cell growth inhibition; format: cell-based; conditions: Homo sapiens, MOLT-4, 72 h, MOLT-4 cells, MTT, 72 hours incubation; read-out: GI50 Mol
In short: as §1

[17] = test system: N-87 (human gastric cancer cells); experiment: MTT cancer cell growth inhibition; format: cell-based; conditions: Homo sapiens, 72 h, MTT, 72 hours incubation, N-87 cells; read-out: GI50 N-87
In short: as §1

[18] = test system: PANC-1 (Pac-1, human pancreatic cancer cells); experiment: MTT cancer cell growth inhibition; format: cell-based; conditions: Homo sapiens, PANC-1, 72 h, PANC-1 cells, MTT, 72 hours incubation; read-out: GI50 PAN
In short: as §1

[19] = test system: SGC-7901 (human gastric cancer cells); experiment: MTT cancer cell growth inhibition; format: cell-based; conditions: Homo sapiens, SGC-7901, 72 h, MTT, 72 hours incubation, SGC-7901 cells; read-out: GI50 SGC-7901
In short: as §1

[20] = test system: U937 (human leukemia cells); experiment: MTT cancer cell growth inhibition; format: cell-based; conditions: Homo sapiens, U-937, 72 h, U937 cells, MTT, 72 hours incubation; read-out: GI50 U93
In short: as §1

[21] = test system: lncap (prostate cancer cells); experiment: MTT cancer cell growth inhibition; format: cell-based; conditions: Homo sapiens, LNCaP, 72 h, lncap cells, MTT, 72 hours incubation; read-out: GI50 lnca
In short: as §1

Compound | IC50 HDAC7 [1] | GI50 [2] | GI50 [3] | GI50 [4] | GI50 [5] | GI50 [6] | GI50 [7] | GI50 [8] | GI50 [9] | GI50 [10] | GI50 [11] | GI50 [12] | GI50 [13] | GI50 [14] | GI50 [15] | GI50 [16] | GI50 [17] | GI50 [18] | GI50 [19] | GI50 [20] | other results
C/C=C1\NC(=O)c2cc(SC)cc(n2)CNC(=O)C[C@@H](/C=C/CCSC(=O)CCCC)OC(=O)[C@H](C(C)C)NC1=O [Compound 157] | no activity | 20 nM | 30 nM | 83 nM | 70 nM | 35 nM | 37 nM | 90 nM | 70 nM | 29 nM | 23 nM | 36 nM | 23 nM | 20 nM | 26 nM | 20 nM | 36 nM | 20 nM | 72 nM | 20 nM | GI50 [21]: 50 nM
C/C=C1\NC(=O)c2ccc(SC)c(n2)CNC(=O)C[C@@H](/C=C/CCSC(=O)CCCC)OC(=O)[C@H](C(C)C)NC1=O [Compound 158] | no activity | 30 nM | 30 nM | 45 nM | 60 nM | 49 nM | 91 nM | 70 nM | 60 nM | 41 nM | 48 nM | 46 nM | 27 nM | 20 nM | 46 nM | 80 nM | 38 nM | 20 nM | 27 nM | 40 nM | GI50 [21]: 40 nM
C/C=C1\NC(=O)c2nc(ccc2SC)CNC(=O)C[C@@H](/C=C/CCSC(=O)CCC)OC(=O)[C@H](C(C)C)NC1=O [Compound 159] | no activity | 30 nM | 80 nM | 23 nM | 40 nM | 24 nM | 35 nM | 50 nM | 70 nM | 58 nM | 62 nM | 35 nM | 53 nM | 50 nM | 36 nM | 50 nM | 63 nM | 50 nM | 75 nM | 60 nM | GI50 [21]: 60 nM
C/C=C1\NC(=O)c2cc(SC)cc(n2)CNC(=O)C[C@@H](/C=C/CCSC(=O)CCC)OC(=O)[C@H](C(C)C)NC1=O [Compound 160] | no activity | 30 nM | 90 nM | 36 nM | 40 nM | 71 nM | 16 nM | 40 nM | 50 nM | 42 nM | 42 nM | 28 nM | 26 nM | 40 nM | 17 nM | 50 nM | 49 nM | 40 nM | 81 nM | 50 nM | GI50 [21]: 50 nM
C/C=C1\NC(=O)c2ccc(SC)c(n2)CNC(=O)C[C@@H](/C=C/CCSC(=O)CCC)OC(=O)[C@H](C(C)C)NC1=O [Compound 161] | no activity | 80 nM | 20 nM | 47 nM | 20 nM | 57 nM | 65 nM | 50 nM | 10 nM | 79 nM | 31 nM | 13 nM | 12 nM | 70 nM | 46 nM | 30 nM | 37 nM | 10 nM | 91 nM | 60 nM | GI50 [21]: 70 nM
C/C=C1\NC(=O)c2nc(ccc2SC)CNC(=O)C[C@@H](/C=C/CCSC(=O)CC)OC(=O)[C@H](C(C)C)NC1=O [Compound 162] | no activity | 90 nM | 50 nM | 35 nM | 10 nM | 49 nM | 51 nM | 70 nM | 80 nM | 81 nM | 73 nM | 42 nM | 16 nM | 40 nM | 79 nM | 70 nM | 18 nM | 70 nM | 78 nM | 50 nM | GI50 [21]: 50 nM
